{
  "source": "patent US4876248A",
  "about": "“Anti-inflammatory products derived from methylene-diphosphonic acid, and process for their preparation” (priority 1982, dated 1989)",
  "note": "Counter-ions that a name gives are not always drawn.",
  "data": [
    {"test_system": "Adjuvant arthritis", "experiment": "Adjuvant arthritis in the rat (in vivo study), weight of the paw", "set-up": "species or system rat (male Sprague-Dawley)", "conditions": "10 mg/kg per day cutaneously, 6 days per week, 3 weeks, started 15 days after Mycobacterium tuberculosis injection, right rear paw", "units": {"Adjuvant arthritis, weight of the paw % inhibition (difference in average paw weight of treated arthritic rats relative to reference arthritic rats)": "%"}, "values": [
      {"smiles": "CSCCC(P(=O)(O)O)P(=O)(O)O", "note": "[SR 41 273, Tertiary butylamine salt of 3-methylthio-propylidene-1,1-diphosphonic acid]", "Adjuvant arthritis, weight of the paw % inhibition (difference in average paw weight of treated arthritic rats relative to reference arthritic rats)": 39},
      {"smiles": "CCCSCCCCCC(O)(P(=O)(O)O)P(=O)(O)O", "note": "[SR 42 015]", "Adjuvant arthritis, weight of the paw % inhibition (difference in average paw weight of treated arthritic rats relative to reference arthritic rats)": 47},
      {"smiles": "O=P(O)(O)C(Sc1cccs1)P(=O)(O)O", "note": "[SR 41 549, thien-2-yl-thiomethylene-diphosphonic acid]", "Adjuvant arthritis, weight of the paw % inhibition (difference in average paw weight of treated arthritic rats relative to reference arthritic rats)": 34},
      {"smiles": "O=P(O)(O)C(O)(CCCSc1ccc(Cl)cc1)P(=O)(O)O", "note": "[SR 41 903, Di-(tertiarybutylamine) salt of 4-(4-chlorophenylthio)-1-hydroxy-butylidene-1,1-diphosphonic acid]", "Adjuvant arthritis, weight of the paw % inhibition (difference in average paw weight of treated arthritic rats relative to reference arthritic rats)": 55},
      {"smiles": "O=P(O)(O)C(Sc1ccccn1)P(=O)(O)O", "note": "[SR 41 179]", "Adjuvant arthritis, weight of the paw % inhibition (difference in average paw weight of treated arthritic rats relative to reference arthritic rats)": 25},
      {"smiles": "O=P(O)(O)C(CCCCSc1ccccn1)P(=O)(O)O", "note": "[SR 42 099, 5-(pyrid-2-yl-thio)-pentylidene-1,1-diphosphonic acid]", "Adjuvant arthritis, weight of the paw % inhibition (difference in average paw weight of treated arthritic rats relative to reference arthritic rats)": 44},
      {"smiles": "CCCCCCCCSC(P(=O)(OC(C)C)OC(C)C)P(=O)(OC(C)C)OC(C)C", "note": "[SR 41 454, Tetraisopropyl n-octylthiomethylene-diphosphonate]", "Adjuvant arthritis, weight of the paw % inhibition (difference in average paw weight of treated arthritic rats relative to reference arthritic rats)": 33},
      {"smiles": "O=P(O)(O)C(O)(CCCCSc1ccc(Cl)cc1)P(=O)(O)O", "note": "[SR 42 016]", "Adjuvant arthritis, weight of the paw % inhibition (difference in average paw weight of treated arthritic rats relative to reference arthritic rats)": 48},
      {"smiles": "CC(C)OP(=O)(OC(C)C)C(CCCSc1ccccc1)P(=O)(OC(C)C)OC(C)C", "note": "[SR 41 341, Tetraisopropyl 4-phenylthio-butylene-1,1-diphosphonate]", "Adjuvant arthritis, weight of the paw % inhibition (difference in average paw weight of treated arthritic rats relative to reference arthritic rats)": 24},
      {"smiles": "CSC(P(=O)(O)O)P(=O)(O)O", "note": "[SR 41 036, Tri-(tertiary butylamine) salt of methylthio-methylene-diphosphonic acid]", "Adjuvant arthritis, weight of the paw % inhibition (difference in average paw weight of treated arthritic rats relative to reference arthritic rats)": 23},
      {"smiles": "CCCCCCCSC(P(=O)(O)O)P(=O)(O)O", "note": "[SR 41 552]", "Adjuvant arthritis, weight of the paw % inhibition (difference in average paw weight of treated arthritic rats relative to reference arthritic rats)": 36},
      {"smiles": "O=P(O)(O)C(O)(CCSc1ccccc1)P(=O)(O)O", "note": "[SR 42 017]", "Adjuvant arthritis, weight of the paw % inhibition (difference in average paw weight of treated arthritic rats relative to reference arthritic rats)": 49},
      {"smiles": "Nc1ccccc1SC(P(=O)(O)O)P(=O)(O)O", "note": "[SR 41 388]", "Adjuvant arthritis, weight of the paw % inhibition (difference in average paw weight of treated arthritic rats relative to reference arthritic rats)": 42},
      {"smiles": "O=P(O)(O)C(Sc1nc2cc(Cl)ccc2[nH]1)P(=O)(O)O", "note": "[SR 41 480]", "Adjuvant arthritis, weight of the paw % inhibition (difference in average paw weight of treated arthritic rats relative to reference arthritic rats)": 40},
      {"smiles": "O=P(O)(O)C(Sc1nc2ccccc2s1)P(=O)(O)O", "note": "[SR 41 481, Tri-(tertiarybutylamine) salt of benzothiazol-2-yl-thiomethylene-diphosphonic acid]", "Adjuvant arthritis, weight of the paw % inhibition (difference in average paw weight of treated arthritic rats relative to reference arthritic rats)": 40},
      {"smiles": "CC(C)OP(=O)(OC(C)C)C(Sc1ccccc1C(=O)O)P(=O)(OC(C)C)OC(C)C", "note": "[SR 41 452]", "Adjuvant arthritis, weight of the paw % inhibition (difference in average paw weight of treated arthritic rats relative to reference arthritic rats)": 15},
      {"smiles": "CCCCCCCCCCCCCCCCSC(P(=O)(O)O)P(=O)(O)O", "note": "[SR 41 453, Monoammonium hexadecylthiomethylene-diphosphonate]", "Adjuvant arthritis, weight of the paw % inhibition (difference in average paw weight of treated arthritic rats relative to reference arthritic rats)": 58},
      {"smiles": "CCCCCCCCSC(P(=O)(O)O)P(=O)(O)O", "note": "[SR 41 421]", "Adjuvant arthritis, weight of the paw % inhibition (difference in average paw weight of treated arthritic rats relative to reference arthritic rats)": 55},
      {"smiles": "O=P(O)(O)C(Sc1ncccn1)P(=O)(O)O", "note": "[SR 41 264]", "Adjuvant arthritis, weight of the paw % inhibition (difference in average paw weight of treated arthritic rats relative to reference arthritic rats)": 43},
      {"smiles": "CC(C)SC(P(=O)(O)O)P(=O)(O)O", "note": "[SR 41 100]", "Adjuvant arthritis, weight of the paw % inhibition (difference in average paw weight of treated arthritic rats relative to reference arthritic rats)": 37},
      {"smiles": "CN(C)CCSC(P(=O)(O)O)P(=O)(O)O", "note": "[SR 41 344]", "Adjuvant arthritis, weight of the paw % inhibition (difference in average paw weight of treated arthritic rats relative to reference arthritic rats)": 35},
      {"smiles": "O=P(O)(O)C(Sc1nc2ccccc2[nH]1)P(=O)(O)O", "note": "[SR 41 263]", "Adjuvant arthritis, weight of the paw % inhibition (difference in average paw weight of treated arthritic rats relative to reference arthritic rats)": 19},
      {"smiles": "O=P(O)(O)C(CCCCS)P(=O)(O)O", "note": "[SR 41 527, Di-(tertiarybutylalmine) salt of 5-mercapto-pentylidene-1,1-diphosphonic acid]", "Adjuvant arthritis, weight of the paw % inhibition (difference in average paw weight of treated arthritic rats relative to reference arthritic rats)": 34},
      {"smiles": "O=P(O)(O)C(CCCCCCSc1ccc(Cl)cc1)P(=O)(O)O", "note": "[SR 41 959]", "Adjuvant arthritis, weight of the paw % inhibition (difference in average paw weight of treated arthritic rats relative to reference arthritic rats)": 60},
      {"smiles": "NCCSC(P(=O)(O)O)P(=O)(O)O", "note": "[SR 41 266]", "Adjuvant arthritis, weight of the paw % inhibition (difference in average paw weight of treated arthritic rats relative to reference arthritic rats)": 29},
      {"smiles": "CCCCCSCCCC(O)(P(=O)(O)O)P(=O)(O)O", "note": "[SR 41 961]", "Adjuvant arthritis, weight of the paw % inhibition (difference in average paw weight of treated arthritic rats relative to reference arthritic rats)": 53},
      {"smiles": "O=P(O)(O)C(Sc1ccccc1)P(=O)(O)O", "note": "[SR 41 482]", "Adjuvant arthritis, weight of the paw % inhibition (difference in average paw weight of treated arthritic rats relative to reference arthritic rats)": 41},
      {"smiles": "O=P(O)(O)C(CCCSc1ccccc1)P(=O)(O)O", "note": "[SR 41 342, Di-(tertiarybutylamine salt) of 4-phenylthio-butylidene-1,1-diphosphonic acid]", "Adjuvant arthritis, weight of the paw % inhibition (difference in average paw weight of treated arthritic rats relative to reference arthritic rats)": 38},
      {"smiles": "CSCCCCCCCCCCC(O)(P(=O)(O)O)P(=O)(O)O", "note": "[SR 42 097]", "Adjuvant arthritis, weight of the paw % inhibition (difference in average paw weight of treated arthritic rats relative to reference arthritic rats)": 50},
      {"smiles": "O=P(O)(O)C(O)(CCCCSc1ccc(F)cc1)P(=O)(O)O", "note": "[SR 41 909, Di-(tertiarybutylamine) salt of 5-(4-fluorophenylthio)-1-hydroxy-pentylidene-1,1-diphosphonic acid]", "Adjuvant arthritis, weight of the paw % inhibition (difference in average paw weight of treated arthritic rats relative to reference arthritic rats)": 53},
      {"smiles": "O=P(O)(O)C(Sc1ccccc1Cl)P(=O)(O)O", "note": "[SR 41 689]", "Adjuvant arthritis, weight of the paw % inhibition (difference in average paw weight of treated arthritic rats relative to reference arthritic rats)": 31}
    ]}
  ]
}
